Measurements reported in ChEMBL document CHEMBL4396912 (Eur J Med Chem, 2019).
Calls of active or inactive are those of the source. The calls are words filed in the database; no cut-off is given here.

What was measured:
[1] = target: Insulin-degrading enzyme (Homo sapiens) (UniProt P14735); test: Irreversible inhibition of human recombinant IDE expressed in Escherichia coli BL21 (DE3) cells using ATTO 655- Cys-Lys-Leu-Val-Phe-Phe-Ala-Glu-Asp-Trp as substrate preincubated for 30 mins followed by 100 fold compound dilution by spectrophotometric analysis
[2] = target: T1, Insulin-degrading enzyme (Homo sapiens, UniProt P14735); test: Inhibition of human recombinant IDE expressed in Escherichia coli BL21 (DE3) cells using ATTO 655- Cys-Lys-Leu-Val-Phe-Phe-Ala-Glu-Asp-Trp as substrate preincubated for 10 mins followed by substrate addition and measured after 30 mins by spectrophotometric analysis
T1 sequence (P14735 whole entry): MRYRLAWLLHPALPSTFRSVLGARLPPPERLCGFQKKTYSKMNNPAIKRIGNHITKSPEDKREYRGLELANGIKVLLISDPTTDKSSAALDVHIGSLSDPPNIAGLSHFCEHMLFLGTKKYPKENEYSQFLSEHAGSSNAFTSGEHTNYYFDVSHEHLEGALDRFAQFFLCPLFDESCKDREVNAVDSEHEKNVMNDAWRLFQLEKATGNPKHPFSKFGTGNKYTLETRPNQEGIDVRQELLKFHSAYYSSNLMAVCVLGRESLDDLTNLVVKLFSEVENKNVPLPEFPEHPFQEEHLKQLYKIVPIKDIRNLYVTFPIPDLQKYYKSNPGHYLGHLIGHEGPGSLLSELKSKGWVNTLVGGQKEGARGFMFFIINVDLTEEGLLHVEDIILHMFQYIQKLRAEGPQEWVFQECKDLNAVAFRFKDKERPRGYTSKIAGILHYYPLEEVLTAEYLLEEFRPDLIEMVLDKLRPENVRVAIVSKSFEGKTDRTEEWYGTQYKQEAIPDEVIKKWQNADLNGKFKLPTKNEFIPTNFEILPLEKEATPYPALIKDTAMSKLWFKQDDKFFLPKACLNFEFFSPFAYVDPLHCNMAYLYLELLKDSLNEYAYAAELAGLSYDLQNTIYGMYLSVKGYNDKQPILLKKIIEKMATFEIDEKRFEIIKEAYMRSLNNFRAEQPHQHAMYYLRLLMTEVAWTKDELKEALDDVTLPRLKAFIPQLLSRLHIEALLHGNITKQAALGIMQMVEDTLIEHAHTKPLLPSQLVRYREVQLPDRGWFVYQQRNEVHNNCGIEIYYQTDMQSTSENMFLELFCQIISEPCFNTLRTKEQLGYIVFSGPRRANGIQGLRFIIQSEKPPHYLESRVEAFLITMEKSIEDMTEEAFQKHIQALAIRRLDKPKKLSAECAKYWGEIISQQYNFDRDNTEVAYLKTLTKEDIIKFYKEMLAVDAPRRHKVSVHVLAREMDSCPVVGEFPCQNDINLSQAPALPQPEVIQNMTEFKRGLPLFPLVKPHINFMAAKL

[3] = target: Insulin-degrading enzyme (Homo sapiens) (UniProt P14735); test: Inhibition of human recombinant IDE expressed in Escherichia coli BL21 (DE3) cells using ATTO 655- Cys-Lys-Leu-Val-Phe-Phe-Ala-Glu-Asp-Trp as substrate at 100 uM preincubated for 10 mins followed by substrate addition and measured after 30 mins by spectrophotometric analysis relative to control
[4] = target: Insulin-degrading enzyme (Homo sapiens) (UniProt P14735); conditions: HepG2, 30 uM
[5] = target: Insulin-degrading enzyme (Homo sapiens, UniProt P14735, C110L/C171S/C178A/C257V/C414L/C573N/C590S/C789S/C812A/C819A/C904S/C966N/C974A); test: biochemical
Sequence of Insulin-degrading enzyme (Homo sapiens, UniProt P14735, C110L/C171S/C178A/C257V/C414L/C573N/C590S/C789S/C812A/C819A/C904S/C966N/C974A) (P14735 whole entry C110L/C171S/C178A/C257V/C414L/C573N/C590S/C789S/C812A/C819A/C904S/C966N/C974A): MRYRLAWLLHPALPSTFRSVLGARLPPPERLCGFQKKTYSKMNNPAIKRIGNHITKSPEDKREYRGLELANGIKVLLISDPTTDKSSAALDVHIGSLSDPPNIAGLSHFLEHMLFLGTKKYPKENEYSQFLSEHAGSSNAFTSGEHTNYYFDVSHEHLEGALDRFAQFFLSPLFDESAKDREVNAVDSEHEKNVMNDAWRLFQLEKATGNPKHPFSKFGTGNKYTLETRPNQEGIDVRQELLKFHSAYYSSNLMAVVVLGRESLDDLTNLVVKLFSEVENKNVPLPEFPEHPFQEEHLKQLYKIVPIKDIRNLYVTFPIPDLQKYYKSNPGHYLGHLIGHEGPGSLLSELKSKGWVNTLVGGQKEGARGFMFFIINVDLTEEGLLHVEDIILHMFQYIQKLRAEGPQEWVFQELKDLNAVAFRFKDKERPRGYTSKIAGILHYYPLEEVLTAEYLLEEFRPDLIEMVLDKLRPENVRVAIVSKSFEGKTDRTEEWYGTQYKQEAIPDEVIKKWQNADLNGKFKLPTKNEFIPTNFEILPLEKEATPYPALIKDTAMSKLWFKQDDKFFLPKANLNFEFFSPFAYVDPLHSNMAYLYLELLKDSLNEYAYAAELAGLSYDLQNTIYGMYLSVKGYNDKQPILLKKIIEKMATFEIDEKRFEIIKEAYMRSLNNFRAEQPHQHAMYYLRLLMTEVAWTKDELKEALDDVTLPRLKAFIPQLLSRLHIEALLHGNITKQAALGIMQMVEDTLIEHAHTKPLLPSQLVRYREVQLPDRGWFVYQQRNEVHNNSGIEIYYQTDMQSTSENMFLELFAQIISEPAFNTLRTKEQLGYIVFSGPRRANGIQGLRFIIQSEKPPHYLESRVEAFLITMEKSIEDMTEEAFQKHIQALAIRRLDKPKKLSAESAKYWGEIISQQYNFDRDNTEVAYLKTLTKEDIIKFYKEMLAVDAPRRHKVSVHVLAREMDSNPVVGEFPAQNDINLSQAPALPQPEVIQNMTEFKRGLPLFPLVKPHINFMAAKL

[6] = target: Insulin-degrading enzyme (Homo sapiens) (UniProt P14735); conditions: 2 mM

CCN1C(=O)C=CC1=O
inhibition [1]: Active

COCCCOc1ccnc(C[S+]([O-])c2nc3ccccc3[nH]2)c1C (configuration not stated) [RABEPRAZOLE]
IC50 [2]: 11 µM | inhibition [3]: 98%

COc1ccc2[nH]c([S+]([O-])Cc3ncc(C)c(OC)c3C)nc2c1 (configuration not stated)
inhibition [3]: 41%

O=C(C[C@@H](Cc1ccc2ccccc2c1)n1cc(CNC(=O)c2ccc(F)cc2)nn1)NO
deltaT [4]: 6.4 °C | IC50 [5]: 0.33 µM

COc1ccc2[nH]c([S+]([O-])Cc3ncc(C)c(OC)c3C)nc2n1 (configuration not stated)
inhibition [3]: 35%

O=c1c(O)c(-c2cc(O)c(O)c(O)c2)oc2cc(O)cc(O)c12 [MYRICETIN]
IC50 [2]: 100 µM

O=C(O)CN(CCN(CC(=O)O)CC(=O)O)CC(=O)O
inhibition [6]: 100%

O=c1c2ccccc2[se]n1-c1ccccc1
deltaT [4]: 1.3 °C

Cc1c(OCC(F)(F)F)ccnc1C[S+]([O-])c1nc2ccccc2[nH]1 (configuration not stated)
inhibition [3]: 38%

COc1ccnc(C[S+]([O-])c2nc3cc(OC(F)F)ccc3[nH]2)c1OC (configuration not stated)
inhibition [3]: 0%
